{"source": "patent US20250235427A1", "about": "“5-METHOXY-N,N-[…][…] THE TREATMENT OF SOCIAL/EMOTIONAL […] DETACHMENT” (GH RESEARCH IRELAND LIMITED, priority 2022, published 2025)", "system": "patients with postpartum depression (PPD)", "assay": "Clinical trial, inhaled 5-MeO-DMT individualized dosing regimen in postpartum depression (one patient so far)", "experimental": "The single-arm, open-label clinical trial will involve 15 adult female patients with clinically diagnosed postpartum depression (PPD).\nThe second dose (12 mg) will only be administered if: • a. […] The 6 mg dose was safe and well-tolerated according to the investigator, • c. Any psychoactive effects (PsE) of the prior dose have subsided, and • d. Pre-dose vital parameters and forced expiratory volume in one second (FEV1) are in normal range, or if outside of the normal range, are not clinically significant according to the investigator. • 3. Similarly, a third dose (18 mg) will only be administered if: • a. […] The 12 mg dose was safe and well-tolerated according to the investigator, and • c. Any PsE of the prior dose have subsided, and • d. Pre-dose vital parameters and forced expiratory volume in one second (FEV1) are in normal range, or if outside of the normal range, are not clinically significant according to the investigator.\nThe patients will be assessed for a peak psychedelic experience (based on a patient-scored visual analogue scale, the PE scale), sedation, and other endpoints after dosing. Follow-up visits are planned for Day 1, and Day 7 after the dosing day.", "data": [{"molecule": "COc1ccc2[nH]cc(CCN(C)C)c2c1", "note": "[5-MeO-DMT]", "values": [{"measurement": "standard criteria for MADRS response (at least 50% improvement) and MADRS remission (total score equal or less than 10)", "value": "fulfilled"}, {"measurement": "tolerability of the inhalation procedure", "value": "well tolerated with no inhalation-related adverse events"}, {"measurement": "MADRS Concentration Difficulties improvement", "setting": "2 hr, baseline 0", "value": 0}, {"measurement": "MADRS Concentration Difficulties score", "setting": "2 hr, baseline 0", "value": 0}, {"measurement": "MADRS Reduced appetite improvement", "setting": "2 hr, baseline 0", "value": 0}, {"measurement": "MADRS Reduced appetite score", "setting": "2 hr, baseline 0", "value": 0}, {"measurement": "MADRS Suicidal Thoughts improvement", "setting": "2 hr, baseline 0", "value": 0}, {"measurement": "MADRS Suicidal Thoughts score", "setting": "2 hr, baseline 0", "value": 0}, {"measurement": "MADRS Inability to Feel improvement", "setting": "2 hr, baseline 3", "value": 3}, {"measurement": "MADRS Inability to Feel score", "setting": "2 hr, baseline 3", "value": 0}, {"measurement": "MADRS Lassitude improvement", "setting": "2 hr, baseline 3", "value": 3}, {"measurement": "MADRS Lassitude score", "setting": "2 hr, baseline 3", "value": 0}, {"measurement": "MADRS Pessimistic Thoughts improvement", "setting": "2 hr, baseline 4", "value": 4}, {"measurement": "MADRS Pessimistic Thoughts score", "setting": "2 hr, baseline 4", "value": 0}, {"measurement": "MADRS Reported sadness improvement", "setting": "2 hr, baseline 4", "value": 4}, {"measurement": "MADRS Reported sadness score", "setting": "2 hr, baseline 4", "value": 0}, {"measurement": "MADRS Apparent sadness improvement", "setting": "2 hr, baseline 5", "value": 5}, {"measurement": "MADRS Apparent sadness score", "setting": "2 hr, baseline 5", "value": 0}, {"measurement": "MADRS Inner Tension improvement", "setting": "2 hr, baseline 5", "value": 5}, {"measurement": "MADRS Inner Tension score", "setting": "2 hr, baseline 5", "value": 0}, {"measurement": "MADRS Reduced Sleep improvement", "setting": "2 hr, baseline 5", "value": 0}, {"measurement": "MADRS Reduced Sleep score", "setting": "2 hr, baseline 5", "value": 5}, {"measurement": "reported adverse events (cramping left abdominal pain and headache)", "setting": "Day 0", "value": "mild, short-lasting and resolved spontaneously"}, {"measurement": "MADRS Concentration Difficulties improvement", "setting": "Day 1, baseline 0", "value": 0}, {"measurement": "MADRS Concentration Difficulties score", "setting": "Day 1, baseline 0", "value": 0}, {"measurement": "MADRS Reduced appetite improvement", "setting": "Day 1, baseline 0", "value": 0}, {"measurement": "MADRS Reduced appetite score", "setting": "Day 1, baseline 0", "value": 0}, {"measurement": "MADRS Suicidal Thoughts improvement", "setting": "Day 1, baseline 0", "value": 0}, {"measurement": "MADRS Suicidal Thoughts score", "setting": "Day 1, baseline 0", "value": 0}, {"measurement": "BPRS Blunted affect improvement", "setting": "Day 1, baseline 1", "value": 0}, {"measurement": "BPRS Blunted affect score", "setting": "Day 1, baseline 1", "value": 1}, {"measurement": "BPRS Conceptual disorganization improvement", "setting": "Day 1, baseline 1", "value": 0}, {"measurement": "BPRS Conceptual disorganization score", "setting": "Day 1, baseline 1", "value": 1}, {"measurement": "BPRS Disorientation improvement", "setting": "Day 1, baseline 1", "value": 0}, {"measurement": "BPRS Disorientation score", "setting": "Day 1, baseline 1", "value": 1}, {"measurement": "BPRS Grandiosity improvement", "setting": "Day 1, baseline 1", "value": 0}, {"measurement": "BPRS Grandiosity score", "setting": "Day 1, baseline 1", "value": 1}, {"measurement": "BPRS Hallucinatory behaviour improvement", "setting": "Day 1, baseline 1", "value": 0}, {"measurement": "BPRS Hallucinatory behaviour score", "setting": "Day 1, baseline 1", "value": 1}, {"measurement": "BPRS Hostility improvement", "setting": "Day 1, baseline 1", "value": 0}, {"measurement": "BPRS Hostility score", "setting": "Day 1, baseline 1", "value": 1}, {"measurement": "BPRS Mannerisms and Posturing improvement", "setting": "Day 1, baseline 1", "value": 0}, {"measurement": "BPRS Mannerisms and Posturing score", "setting": "Day 1, baseline 1", "value": 1}, {"measurement": "BPRS Motor retardation improvement", "setting": "Day 1, baseline 1", "value": 0}, {"measurement": "BPRS Motor retardation score", "setting": "Day 1, baseline 1", "value": 1}, {"measurement": "BPRS Suspiciousness improvement", "setting": "Day 1, baseline 1", "value": 0}, {"measurement": "BPRS Suspiciousness score", "setting": "Day 1, baseline 1", "value": 1}, {"measurement": "BPRS Uncooperativeness improvement", "setting": "Day 1, baseline 1", "value": 0}, {"measurement": "BPRS Uncooperativeness score", "setting": "Day 1, baseline 1", "value": 1}, {"measurement": "BPRS Unusual Thought Content improvement", "setting": "Day 1, baseline 1", "value": 0}, {"measurement": "BPRS Unusual Thought Content score", "setting": "Day 1, baseline 1", "value": 1}, {"measurement": "BPRS Excitement improvement", "setting": "Day 1, baseline 2", "value": 1}, {"measurement": "BPRS Excitement score", "setting": "Day 1, baseline 2", "value": 1}, {"measurement": "MADRS Inability to Feel improvement", "setting": "Day 1, baseline 3", "value": 3}, {"measurement": "MADRS Inability to Feel score", "setting": "Day 1, baseline 3", "value": 0}, {"measurement": "MADRS Lassitude improvement", "setting": "Day 1, baseline 3", "value": 3}, {"measurement": "MADRS Lassitude score", "setting": "Day 1, baseline 3", "value": 0}, {"measurement": "MADRS Pessimistic Thoughts improvement", "setting": "Day 1, baseline 4", "value": 4}, {"measurement": "MADRS Pessimistic Thoughts score", "setting": "Day 1, baseline 4", "value": 0}, {"measurement": "MADRS Reported sadness improvement", "setting": "Day 1, baseline 4", "value": 4}, {"measurement": "MADRS Reported sadness score", "setting": "Day 1, baseline 4", "value": 0}, {"measurement": "BPRS Emotional withdrawal improvement", "setting": "Day 1, baseline 5", "value": 4}, {"measurement": "BPRS Emotional withdrawal score", "setting": "Day 1, baseline 5", "value": 1}, {"measurement": "MADRS Apparent sadness improvement", "setting": "Day 1, baseline 5", "value": 5}, {"measurement": "MADRS Apparent sadness score", "setting": "Day 1, baseline 5", "value": 0}, {"measurement": "MADRS Inner Tension improvement", "setting": "Day 1, baseline 5", "value": 5}, {"measurement": "MADRS Inner Tension score", "setting": "Day 1, baseline 5", "value": 0}, {"measurement": "MADRS Reduced Sleep improvement", "setting": "Day 1, baseline 5", "value": 5}, {"measurement": "MADRS Reduced Sleep score", "setting": "Day 1, baseline 5", "value": 0}, {"measurement": "BPRS Depressive Mood improvement", "setting": "Day 1, baseline 6", "value": 5}, {"measurement": "BPRS Depressive Mood score", "setting": "Day 1, baseline 6", "value": 1}, {"measurement": "BPRS Guilt feelings improvement", "setting": "Day 1, baseline 6", "value": 5}, {"measurement": "BPRS Guilt feelings score", "setting": "Day 1, baseline 6", "value": 1}, {"measurement": "BPRS Somatic Concern improvement", "setting": "Day 1, baseline 6", "value": 5}, {"measurement": "BPRS Somatic Concern score", "setting": "Day 1, baseline 6", "value": 1}, {"measurement": "BPRS Tension improvement", "setting": "Day 1, baseline 6", "value": 5}, {"measurement": "BPRS Tension score", "setting": "Day 1, baseline 6", "value": 1}, {"measurement": "BPRS Anxiety improvement", "setting": "Day 1, baseline 7", "value": 6}, {"measurement": "BPRS Anxiety score", "setting": "Day 1, baseline 7", "value": 1}, {"measurement": "BIMF item 2 (I feel rested) score", "setting": "Day 7, Day 0 score 0", "value": 2}, {"measurement": "BIMF item 19 (As time goes on, I am getting better at taking care of my baby) score", "setting": "Day 7, Day 0 score 0", "value": 1}, {"measurement": "BIMF item 18 (Anxiety or worry often interferes with my mothering ability) score", "setting": "Day 7, Day 0 score 2", "value": 5}, {"measurement": "BIMF item 13 (I am taking good care of my physical needs) score", "setting": "Day 7, Day 0 score 4", "value": 5}, {"measurement": "BIMF item 4 (My baby and I understand each other) score", "setting": "Day 7, Day 0 score 5", "value": 5}, {"measurement": "BIMF item 5 (I am able to relax and enjoy time with my baby) score", "setting": "Day 7, Day 0 score 5", "value": 6}, {"measurement": "BIMF item 9 (I am getting enough encouragement from other people) score", "setting": "Day 7, Day 0 score 5", "value": 6}, {"measurement": "BIMF item 10 (I trust my own feelings (instincts) when it comes to taking care of my baby) score", "setting": "Day 7, Day 0 score 5", "value": 6}, {"measurement": "BIMF item 15 (My baby and I are getting into a routine) score", "setting": "Day 7, Day 0 score 5", "value": 6}, {"measurement": "BIMF item 17 (I am able to take care of my baby and my other responsibilities) score", "setting": "Day 7, Day 0 score 5", "value": 5}, {"measurement": "BIMF item 1 (I am a good mother) score", "setting": "Day 7, Day 0 score 6", "value": 6}, {"measurement": "BIMF item 3 (I am comfortable with the way I've chosen to feed my baby) score", "setting": "Day 7, Day 0 score 6", "value": 6}, {"measurement": "BIMF item 6 (There are people in my life that I can trust to care for my baby when I need a break) score", "setting": "Day 7, Day 0 score 6", "value": 6}, {"measurement": "BIMF item 8 (I am getting enough adult interaction) score", "setting": "Day 7, Day 0 score 6", "value": 6}, {"measurement": "BIMF item 12 (I am taking good care of my baby's physical needs) score", "setting": "Day 7, Day 0 score 6", "value": 6}, {"measurement": "BIMF item 14 (I make good decisions about my baby's health and well being) score", "setting": "Day 7, Day 0 score 6", "value": 6}, {"measurement": "BIMF item 20 (I am satisfied with the job I am doing as a new mother) score", "setting": "Day 7, Day 0 score 6", "value": 5}, {"measurement": "MADRS Concentration Difficulties improvement", "setting": "Day 7, baseline 0", "value": 0}, {"measurement": "MADRS Concentration Difficulties score", "setting": "Day 7, baseline 0", "value": 0}, {"measurement": "MADRS Reduced appetite improvement", "setting": "Day 7, baseline 0", "value": 0}, {"measurement": "MADRS Reduced appetite score", "setting": "Day 7, baseline 0", "value": 0}, {"measurement": "MADRS Suicidal Thoughts improvement", "setting": "Day 7, baseline 0", "value": 0}, {"measurement": "MADRS Suicidal Thoughts score", "setting": "Day 7, baseline 0", "value": 0}, {"measurement": "BPRS Blunted affect improvement", "setting": "Day 7, baseline 1", "value": 0}, {"measurement": "BPRS Blunted affect score", "setting": "Day 7, baseline 1", "value": 1}, {"measurement": "BPRS Conceptual disorganization improvement", "setting": "Day 7, baseline 1", "value": 0}, {"measurement": "BPRS Conceptual disorganization score", "setting": "Day 7, baseline 1", "value": 1}, {"measurement": "BPRS Disorientation improvement", "setting": "Day 7, baseline 1", "value": 0}]}]}
